In ChEMBL document CHEMBL3885881, “DrugMatrix”:

Species: Rattus norvegicus
Experiment: DrugMatrix - Regimen: Daily Repeat
Format: toxicity, organism-based, Sprague-Dawley
Parameters: regimen Daily Repeat, gender Male, age 6-8 weeks
Details: in vivo, po, route oral GAVAGE, vehicle .5 % CMC; for ABSOLUTE BASOPHIL / ABSOLUTE EOSINOPHIL / ABSOLUTE LYMPHOCYTE / ABSOLUTE MONOCYTE / ABSOLUTE SEGMENTED NEUTROPHIL / BASOPHIL / EOSINOPHIL / ERYTHROCYTE COUNT / HEMATOCRIT / HEMOGLOBIN / LEUKOCYTE COUNT / LYMPHOCYTE / MEAN CORPUSCULAR HEMOGLOBIN / MEAN CORPUSCULAR HEMOGLOBIN CONCENTRATION / MEAN CORPUSCULAR VOLUME / MONOCYTE / NEUTROPHIL / NUCLEATED RED BLOOD CELLS / PLATELET COUNT: tissue Blood; for ALANINE AMINOTRANSFERASE / ALBUMIN / ALKALINE PHOSPHATASE / ASPARTATE AMINOTRANSFERASE / BLOOD UREA NITROGEN / CARBON DIOXIDE / CHLORIDE / CHOLESTEROL / CREATINE PHOSPHOKINASE / CREATININE / GLUCOSE / LACTATE DEHYDROGENASE / LIPASE / PHOSPHORUS / POTASSIUM / SODIUM / TOTAL BILIRUBIN / TOTAL PROTEIN / URIC ACID: tissue Plasma
[1] = 0 mg/kg, 72 h, dose level Control, time 3 day
[2] = 0 mg/kg, 120 h, dose level Control, time 5 day
[3] = 50 mg/kg, 72 h, dose level Low, time 3 day

CC(/C=C1\SC(=S)N(CC(=O)O)C1=O)=C\c1ccccc1
ABSOLUTE BASOPHIL [1]: 0 CELLS/uL
ABSOLUTE EOSINOPHIL [1]: 0 CELLS/uL
ABSOLUTE LYMPHOCYTE [1]: 12191.17 CELLS/uL
ABSOLUTE MONOCYTE [1]: 183.17 CELLS/uL
ABSOLUTE SEGMENTED NEUTROPHIL [1]: 1192.33 CELLS/uL
BASOPHIL [1]: 0%
EOSINOPHIL [1]: 0%
ERYTHROCYTE COUNT [1]: 5.51 x10E6/uL
HEMATOCRIT [1]: 35.45%
HEMOGLOBIN [1]: 13.82 G/DL
LEUKOCYTE COUNT [1]: 13.57 x10E3/uL
LYMPHOCYTE [1]: 89.83%
MEAN CORPUSCULAR HEMOGLOBIN [1]: 25.1 pg
MEAN CORPUSCULAR HEMOGLOBIN CONCENTRATION [1]: 38.98 G/DL
MEAN CORPUSCULAR VOLUME [1]: 64.42 fL
MONOCYTE [1]: 1.33%
NEUTROPHIL [1]: 8.83%
NUCLEATED RED BLOOD CELLS [1]: 0 /100WBC
PLATELET COUNT [1]: 1118.17 x10E3/uL
ALANINE AMINOTRANSFERASE [1]: 55 u/L
ALBUMIN [1]: 4.15 G/DL
ALKALINE PHOSPHATASE [1]: 449.5 u/L
ASPARTATE AMINOTRANSFERASE [1]: 112.83 u/L
BLOOD UREA NITROGEN [1]: 17.33 mg/dL
CARBON DIOXIDE [1]: 29.5 mmol/L
CHLORIDE [1]: 101 MEQ/L
CHOLESTEROL [1]: 70 mg/dL
CREATINE PHOSPHOKINASE [1]: 1325.83 u/L
CREATININE [1]: 0.18 mg/dL
GLUCOSE [1]: 171.5 mg/dL
LACTATE DEHYDROGENASE [1]: 386 u/L
LIPASE [1]: 10 u/L
PHOSPHORUS [1]: 11.57 mg/dL
POTASSIUM [1]: 6.21 MEQ/L
SODIUM [1]: 141.65 MEQ/L
TOTAL BILIRUBIN [1]: 0.15 mg/dL
TOTAL PROTEIN [1]: 5.75 G/DL
URIC ACID [1]: 1.28 mg/dL
ABSOLUTE BASOPHIL [2]: 0 CELLS/uL
ABSOLUTE EOSINOPHIL [2]: 138.17 CELLS/uL
ABSOLUTE LYMPHOCYTE [2]: 13283.17 CELLS/uL
ABSOLUTE MONOCYTE [2]: 303.83 CELLS/uL
ABSOLUTE SEGMENTED NEUTROPHIL [2]: 1308.17 CELLS/uL
BASOPHIL [2]: 0%
EOSINOPHIL [2]: 1%
ERYTHROCYTE COUNT [2]: 5.32 x10E6/uL
HEMATOCRIT [2]: 33.8%
HEMOGLOBIN [2]: 13.63 G/DL
LEUKOCYTE COUNT [2]: 15.03 x10E3/uL
LYMPHOCYTE [2]: 88.33%
MEAN CORPUSCULAR HEMOGLOBIN [2]: 25.68 pg
MEAN CORPUSCULAR HEMOGLOBIN CONCENTRATION [2]: 40.35 G/DL
MEAN CORPUSCULAR VOLUME [2]: 63.67 fL
MONOCYTE [2]: 1.83%
NEUTROPHIL [2]: 8.83%
NUCLEATED RED BLOOD CELLS [2]: 0 /100WBC
PLATELET COUNT [2]: 1097.5 x10E3/uL
ALANINE AMINOTRANSFERASE [2]: 54.5 u/L
ALBUMIN [2]: 4.27 G/DL
ALKALINE PHOSPHATASE [2]: 337 u/L
ASPARTATE AMINOTRANSFERASE [2]: 94.67 u/L
BLOOD UREA NITROGEN [2]: 17 mg/dL
CARBON DIOXIDE [2]: 28.33 mmol/L
CHLORIDE [2]: 101.5 MEQ/L
CHOLESTEROL [2]: 71.33 mg/dL
CREATINE PHOSPHOKINASE [2]: 628.17 u/L
CREATININE [2]: 0.19 mg/dL
GLUCOSE [2]: 177.83 mg/dL
LACTATE DEHYDROGENASE [2]: 500.5 u/L
LIPASE [2]: 9.5 u/L
PHOSPHORUS [2]: 12.3 mg/dL
POTASSIUM [2]: 5.63 MEQ/L
SODIUM [2]: 143.03 MEQ/L
TOTAL BILIRUBIN [2]: 0.2 mg/dL
TOTAL PROTEIN [2]: 6.02 G/DL
URIC ACID [2]: 1.5 mg/dL
ABSOLUTE BASOPHIL [3]: 0 CELLS/uL
ABSOLUTE EOSINOPHIL [3]: 0 CELLS/uL
ABSOLUTE LYMPHOCYTE [3]: 10745.33 CELLS/uL
ABSOLUTE MONOCYTE [3]: 122.33 CELLS/uL
ABSOLUTE SEGMENTED NEUTROPHIL [3]: 899 CELLS/uL
BASOPHIL [3]: 0%
EOSINOPHIL [3]: 0%
ERYTHROCYTE COUNT [3]: 5.12 x10E6/uL
HEMATOCRIT [3]: 32.47%
HEMOGLOBIN [3]: 13.07 G/DL
LEUKOCYTE COUNT [3]: 11.77 x10E3/uL
LYMPHOCYTE [3]: 91.33%
MEAN CORPUSCULAR HEMOGLOBIN [3]: 25.57 pg
MEAN CORPUSCULAR HEMOGLOBIN CONCENTRATION [3]: 40.23 G/DL
MEAN CORPUSCULAR VOLUME [3]: 63.67 fL
MONOCYTE [3]: 1%
NEUTROPHIL [3]: 7.67%
NUCLEATED RED BLOOD CELLS [3]: 0.33 /100WBC
PLATELET COUNT [3]: 1123 x10E3/uL
ALANINE AMINOTRANSFERASE [3]: 53.67 u/L
ALBUMIN [3]: 4.27 G/DL
ALKALINE PHOSPHATASE [3]: 336 u/L
ASPARTATE AMINOTRANSFERASE [3]: 85.33 u/L
BLOOD UREA NITROGEN [3]: 16 mg/dL
CARBON DIOXIDE [3]: 27.33 mmol/L
CHLORIDE [3]: 101.67 MEQ/L
CHOLESTEROL [3]: 75.67 mg/dL
CREATINE PHOSPHOKINASE [3]: 291.33 u/L
CREATININE [3]: 0.17 mg/dL
GLUCOSE [3]: 165.67 mg/dL
LACTATE DEHYDROGENASE [3]: 165.67 u/L
LIPASE [3]: 9.33 u/L
PHOSPHORUS [3]: 12.33 mg/dL
POTASSIUM [3]: 6.32 MEQ/L
SODIUM [3]: 143.7 MEQ/L
TOTAL BILIRUBIN [3]: 0.1 mg/dL
TOTAL PROTEIN [3]: 5.77 G/DL
URIC ACID [3]: 2.2 mg/dL
